Earlier results on four molecules are cited in patent US20230338329A1, “C[…] COMPOSITION AND METHOD OF MANUFACTURING” (priority 2022, published 2023).

For this data set the following is noted: hydrophilic-lipophilic balance value.
For the molecule alkyl phenyl polyoxyethylene ether, the HLB is on record as 14.5. With polyoxyethylene sorbitan monooleate, the HLB is listed as 15. Turning to `CCCCCCCCCCCCOS(=O)(=O)[O-].[Na+]` [sodium lauryl sulfate], the HLB is 40. Regarding Sorbitan monooleate [Span 80], the HLB is reported as 4.9.
